# Assay results reported in patent US20160362399A1, “ARYL, HETEROARYL, AND HETEROCYCLIC COMPOUNDS FOR TREATMENT OF COMPLEMENT MEDIATED DISORDERS” (Achillion Pharmaceuticals, Inc., priority 2014, published 2016).
# Target: T1, Human factor D (Homo sapiens, UniProt P00746)
# T1 construct: purified from human serum; purchased Complement Technology, Inc; host or cells: human serum
# Assay: Human Factor D Assay
# Format: biochemical
# Details: not given
# Method: Other standard factor D inhibition assays are also available.
# Human factor D (purified from human serum, Complement Technology, Inc.) at 80 nM final concentration is incubated with test compound at various concentrations for 5 minutes at room temperature in 50 mM Tris, 1M NaCl, pH 7.5. A synthetic substrate Z-L-Lys-SBzl and DTNB (Ellman's reagent) are added to final concentrations of 100 μM each. The increase in color is recorded at OD405 nm in a microplate in kinetic mode over 30 minutes with 30 second time points in a spectrofluorimeter. IC50 values are calculated by non-linear regression from the percentage of inhibition of complement factor D activity as a function of test compound concentration.
# T1 sequence (P00746 26-253): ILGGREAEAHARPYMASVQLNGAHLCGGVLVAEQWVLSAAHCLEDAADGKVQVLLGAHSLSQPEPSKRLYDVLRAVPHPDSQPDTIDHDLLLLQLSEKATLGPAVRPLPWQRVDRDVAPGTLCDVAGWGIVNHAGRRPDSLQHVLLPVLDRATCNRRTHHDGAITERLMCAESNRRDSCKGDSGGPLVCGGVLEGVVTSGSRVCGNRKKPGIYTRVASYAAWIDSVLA
row,Structure (SMILES),IC50 [µM]
1,"NC(=O)c1nn(CC(=O)N2C[C@H](F)C[C@H]2C(=O)N[C@@H]2CCC[C@@H]2OCc2ccccc2)c2ccc(-c3ccnnc3)cc12 [Compound 51, 1-(2-((2S,4R)-2-((1R,2S)-2-(benzyloxy)cyclopentylcarbamoyl)-4-fluoropyrrolidin-1-yl)-2-oxoethyl)-5-(pyridazin-4-yl)-1H-indazole-3-carboxamide]",> 10
2,"CC(=O)c1cn(CC(=O)N2C[C@H](F)C[C@H]2C(=O)Nc2cccc(-c3ccccc3Cl)c2F)c2ccc(C3=CCN(C(C)=O)CC3)cc12 [Compound 28, (2S,4R)-1-(2-(3-acetyl-5-(1-acetyl-1,2,3,6-tetrahydropyridin-4-yl)-1H-indol-1-yl)acetyl)-N-(2′-chloro-2-fluorobiphenyl-3-yl)-4-fluoropyrrolidine-2-carboxamide]",< 1

# Same assay, conditions: human factor D 80 nM, substrate Z-L-Lys-SBzl, assay of Example 7; read-out: IC50
row,Structure (SMILES),IC50 [µM]
1,"CC(=O)c1cn(CC(=O)N2[C@@H]3C[C@@H]3C[C@H]2C(=O)Nc2cccc(Br)n2)c2ccc(-c3cnc(C)nc3)cc12 [Compound 132, (1R,3S,5R)-2-(2-(3-acetyl-5-(2-methylpyrimidin-5-yl)-1H-indol-1-yl)acetyl)-N-(6-bromopyridin-2-yl)-2-azabicyclo[3.1.0]hexane-3-carboxamide]",< 1
2,"Cc1nc2sccn2c1-c1csc(NC(=O)[C@@H]2C[C@@H](F)CN2C(=O)Cn2nc(C(N)=O)c3cc(-c4ccnnc4)ccc32)n1 [Compound 58, 1-(2-((2S,4R)-4-fluoro-2-(4-(6-methylimidazo[2,1-b]thiazol-5-yl)thiazol-2-ylcarbamoyl)pyrrolidin-1-yl)-2-oxoethyl)-5-(pyridazin-4-yl)-1H-indazole-3-carboxamide]",> 10
3,"NC(=O)c1nn(CC(=O)N2C[C@H](F)C[C@H]2C(=O)Nc2ccccc2-c2nc3ccccc3s2)c2ccc(-c3ccnnc3)cc12 [Compound 41, 1-(2-((2S,4R)-2-(2-(benzo[d]thiazol-2-yl)phenylcarbamoyl)-4-fluoropyrrolidin-1-yl)-2-oxoethyl)-5-(pyridazin-4-yl)-1H-indazole-3-carboxamide]",> 10
4,"COc1ncc(-c2ccc3c(c2)c(C(N)=O)nn3CC(=O)N2C[C@H](F)C[C@H]2C(=O)Nc2cccc(-c3ccccc3Cl)c2F)cn1 [Compound 29, 1-(2-((2S,4R)-2-(2′-chloro-2-fluorobiphenyl-3-ylcarbamoyl)-4-fluoropyrrolidin-1-yl)-2-oxoethyl)-5-(2-methoxypyrimidin-5-yl)-1H-indazole-3-carboxamide]",< 1
